From patent US20200299671A1, “IMMOBILIZED MULTI-ENZYMATIC HALOGENATION SYSTEM” (priority 2019, published 2020)

Assays:
PltM [1] = target: T1, PltM (Pseudomonas protegens, UniProt Q4KCZ3); assay: Optimized in vitro PltM halogenation assay (PltM, SsuE, GDH), overnight overall yield by HPLC; format: biochemical; settings: for % overall conversion (trial 1) / % overall conversion (trial 2): optimized chlorination reaction, sum of all chlorinated products; for % overall conversion (trial 1): first of two independent reactions; for % overall conversion (trial 2): second of two independent reactions; for conversion upon overnight reaction: optimized conditions
Experimental: To increase production of halogenated molecules and decrease the amount of NADPH required, the above in vitro assay was optimized by using an additional enzyme, glucose dehydrogenase (GDH). […] The overall yield of halogenation products was determined for reactions run overnight for several substrates (Table 8). Conversion of the substrate to halogenated products was monitored by HPLC at λ=275-320 nm, where the absorbance of molecules is not affected by halogenation, and quantified as fraction of reaction species (%).
The time course experiments were performed in duplicate. Compound 1 was unstable under these optimized conditions, and it was not tested. The in vitro analysis of K87A mutant was performed overnight in 100 μL reaction mixture by using the compound 11 as a substrate. Wild-type PltM was used as a positive control, and no enzyme reaction was used as a negative control. In all above reactions, the compounds were extracted with EtOAc (4×100 μL) and dried under gentle air flow.
(§1) The halogenation reaction products were analyzed by HPLC or LC-MS by injecting 10 μL of each sample. The compounds were separated by Reversed-phase HPLC at the flow rate of 0.2 mL/min by using the following program: eluent A=H2O; eluent B=MeCN; gradient=2% B for 5 min, increase to 100% B over a 30 min period, stay at 100% B for 9 min, decrease to 2% B over a 1 min period, and re-equilibrate the column at 2% B for 30 min.
(§2) For HPLC analysis, the molecules were observed by absorbance at λ=275 nm as described above. As necessary, the following mass spectrometer was operated in negative and positive modes with the following parameters: For negative mode, mass range, 80-600 m/z in profile mode; temperature, 550° C. and ion spray voltage floating, −4500 V, and for positive mode, mass range, 80-600 m/z in profile mode; temperature, 550° C. and ion spray voltage floating, 4500 V. The presence of each compound was analyzed by extracted ion chromatograph (XIC) with the expected mass ±0.05 Da for Assay 1 and Assay 2 and ±0.005 Da for Assay 3 (FIGS. 2A-C, 8-13, and 17-37; Tables 3-4 and 7).

PltM [2] = target: T1, PltM; format: biochemical; settings: optimized conditions; for preference for bromination versus iodination: time course
Experimental: To increase production of halogenated molecules and decrease the amount of NADPH required, the above in vitro assay was optimized by using an additional enzyme, glucose dehydrogenase (GDH). […] Conversion of the substrate to halogenated products was monitored by HPLC at λ=275-320 nm, where the absorbance of molecules is not affected by halogenation, and quantified as fraction of reaction species (%).
The time course experiments were performed in duplicate. […] The in vitro analysis of K87A mutant was performed overnight in 100 μL reaction mixture by using the compound 11 as a substrate. Wild-type PltM was used as a positive control, and no enzyme reaction was used as a negative control. In all above reactions, the compounds were extracted with EtOAc (4×100 μL) and dried under gentle air flow.
To determine the halogenation preference, the kinetic parameters were obtained by the global nonlinear regression analysis of all reaction species using DynaFit software for the following halogenation mechanism:
where E, S, P1, P2 are enzyme, substrate, mono- and dihalogenated product, respectively.

PltM [3] = target: T1, PltM; assay: In vitro PltM halogenation assay with a single halide salt, substrate profile (Assay 1a-1d), LC-MS; format: biochemical; settings: for iodination by PltM (products identified by LC-MS): NaI as halide source (Assay 1d); for chlorination by PltM (products identified by LC-MS): NaCl as halide source (Assay 1b)
Experimental: The halogenation assays were carried out similarly to a recently described procedure. For substrate profile determination (Assay 1), 100 μL reactions were carried out in 30 mM sodium phosphate pH 7.4. As a halide source, 200 mM of either NaF (Assay 1a), NaCl (Assay 1b), NaBr (Assay 1c), or NaI (Assay 1d) was used. To ensure that PltM is incapable of fluorinating, an additional 200 μL reaction with 300 mM NaF was run. A 200 μL reaction with 400 mM NaBr was also run to ensure no additional bromination reaction occurred. Each reaction also contained a specified substrate (0.5 mM), FAD (0.2 mM), NADPH (5 mM), PltM (5.5 μM), and SsuE (5.0 μM). The reactions were initiated by adding NADPH under N2. The reaction tubes were tightly closed to avoid contact with air. The reaction mixtures were incubated at 25° C. for 3 h prior to extraction with EtOAc (4×100 μL). The organic layer was dried by a gentle flow of air, and the residue was dissolved in MeOH to prepare 1-10 μg/mL samples for LC-MS analysis.
as §1, §2

[4] = substrate: OCc1cc(O)cc(O)c1Cl; assay: purified protein, by the assay type; format: biochemical; settings: other: halogen Cl; labelled species converted to next chlorinated product (for 16: to Cl-16a); pH 7.4
[5] = substrate: Oc1cccc(O)c1; assay: purified protein, by the assay type; format: biochemical; settings: pH 7.4
[6] = substrate: OCc1cc(O)cc(O)c1; assay: purified protein, by the assay type; format: biochemical; settings: pH 7.4
[7] = substrate: Nc1cccc(O)c1; assay: purified protein, by the assay type; settings: pH 7.4
[8] = substrate: Oc1ccc(Cl)c(O)c1; assay: purified protein, by the assay type; settings: other: halogen Cl; labelled species converted to next chlorinated product (for 16: to Cl-16a); pH 7.4
[9] = other: halogen Br, labelled species converted to next brominated product (for 16: to Br-16a)
[10] = other: halogen Cl, labelled species converted to next chlorinated product (for 16: to Cl-16a)
[11] = other: halogen Br, 16/Br-16b (second mono-brominated product)
[12] = other: halogen Cl, 16/Cl-16b (second mono-chlorinated product)

Molecule: Oc1cccc(O)c1 [Compound 3]
- % overall conversion (trial 1) (PltM [1]; overnight): 100, 100%
- % overall conversion (trial 2) (PltM [1]; overnight): 100, 100%
- conversion upon overnight reaction (PltM [1]): 100%
- dibromination by PltM (PltM [2]): dibrominated
- preference for bromination versus iodination (PltM [2]): preference for bromination

Molecule: Cc1cc(O)cc(O)c1 [Compound 9]
- % overall conversion (trial 1) (PltM [1]; overnight): 97%
- % overall conversion (trial 2) (PltM [1]; overnight): 96%

Molecule: OCc1cc(O)cc(O)c1 [Compound 11]
- bromination by PltM (products identified by LC-MS) (PltM [3]; NaBr as halide source (Assay 1c)): Mono-bromination of 11 was observed, but not dibromination
- fluorination by PltM (products identified by LC-MS) (PltM [3]; NaF as halide source (Assay 1a)): not dibromination or fluorination
- % overall conversion (trial 1) (PltM [1]; overnight): 100, 100%
- % overall conversion (trial 2) (PltM [1]; overnight): 100, 100%
- conversion upon overnight reaction (PltM [1]): 100%
- product with wild-type PltM (PltM [1]; overnight, conditions of the K87A analysis (positive control)): yields diCl-11
- preference for bromination versus iodination (PltM [2]): for iodination

Molecule: CC(=O)c1c(O)cc(O)cc1O [Compound 15]
- % overall conversion (trial 1) (PltM [1]; overnight): 34%
- % overall conversion (trial 2) (PltM [1]; overnight): 7%

Molecule: Nc1cccc(O)c1 [Compound 16]
- % overall conversion (trial 1) (PltM [1]; overnight): 100, 100%
- % overall conversion (trial 2) (PltM [1]; overnight): 100, 100%
- conversion upon overnight reaction (PltM [1]): 100%
- dibromination by PltM (PltM [2]): dibrominated
- preference for bromination versus iodination (PltM [2]): preference for bromination

Molecule: Nc1cccc(N)c1 [Compound 18]
- % overall conversion (trial 1) (PltM [1]; overnight): 100, 100%
- % overall conversion (trial 2) (PltM [1]; overnight): 100, 100%

Molecule: N[C@@H](Cc1c[nH]c2ccccc12)C(=O)O [Compound 20, L-Trp]
- halogenation by PltM (substrate profile) (PltM [3]; tested for chlorination and iodination): not observed

Molecule: CC(C)(C)NCC(O)c1cc(O)cc(O)c1 (centres unmarked) [Compound 21, terbutaline, reference compound]
- iodination by PltM (products identified by LC-MS) (PltM [3]): both mono and di

Molecule: CC(Cc1ccc(O)cc1)NCC(O)c1cc(O)cc(O)c1 (centres unmarked) [Compound 22, fenoterol, reference compound]
- iodination by PltM (products identified by LC-MS) (PltM [3]): mono-iodinated

Molecule: Oc1ccc(C=Cc2cc(O)cc(O)c2)cc1 [Compound 23, resveratrol]
- chlorination by PltM (products identified by LC-MS) (PltM [3]): mono-chlorinated
- iodination by PltM (products identified by LC-MS) (PltM [3]): mono-iodinated
- % overall conversion (trial 1) (PltM [1]; overnight): 24%
- % overall conversion (trial 2) (PltM [1]; overnight): 20%

Molecule: catechin [Compound 24]
- chlorination by PltM (products identified by LC-MS) (PltM [3]): mono-chlorinated
- iodination by PltM (products identified by LC-MS) (PltM [3]): mono-iodinated

B1: PltM (Pseudomonas protegens Pf-5) (protein)
chain: MNQYDVIIIGSGIAGALTGAVLAKSGLNVLILDSAQHPRFSVGEAATPESGFLLRLLSKRFDIPEIAYLSHPDKIIQHVGSSACGIKLGFSFAWHQENAPSSPDHLVAPPLKVPEAHLFRQDIDYFALMIALKHGAESRQNIKIESISLNDDGVEVALSNAAPVKAAFIIDAAAQGSPLSRQLGLRTTEGLATDTCSFFTHMLNVKSYEDALAPLSRTRSPIELFKSTLHHIFEEGWLWVIPFNNHPQGTNQLCSIGFQFNNAKYRPTEAPEIEFRKLLKKYPAIGEHFKDAVNAREWIYAPRINYRSVQNVGDRFCLLPQATGFIDPLFSRGLITTFESILRLAPKVLDAARSNRWQREQFIEVERHCLNAVATNDQLVSCSYEAFSDFHLWNVWHRVWLSGSNLGSAFLQKLLHDLEHSGDARQFDAALEAVRFPGCLSLDSPAYESLFRQSCQVMQQAREQARPVAETANALHELIKEHEAELLPLGYSRISNRFILKV
- Km [4]: 0.44 ± 0.02 µM
- kcat [4]: 0.003 ± 0.000167 s⁻¹
- kcat/Km [4]: 6830 ± 333 M⁻¹ s⁻¹
- Km [5, 9]: 0.71 ± 0.2 µM
- kcat [5, 9]: 0.0317 ± 0.00167 s⁻¹
- kcat/Km [5, 9]: 45000 ± 10000 M⁻¹ s⁻¹
- Km [5, 10]: (7.6 ± 1.3) × 10^−2 μM
- kcat [5, 10]: 2.3 ± 0.1^a min^−1
- kcat/Km [5, 10]: 30 ± 5 ^ min^−1μM^−1
- Km [6, 9]: (1.1 ± 0.2) × 10^3 μM
- kcat [6, 9]: 0.004 ± 0.000333 s⁻¹
- kcat/Km [6, 9]: 3.67 ± 0.333 M⁻¹ s⁻¹
- Km [6, 10]: 8.4 ± 0.4 µM
- kcat [6, 10]: 0.0267 ± 0.00167 s⁻¹
- kcat/Km [6, 10]: 3170 ± 167 M⁻¹ s⁻¹
- Km [7, 11]: 151 ± 20 µM
- kcat [7, 11]: 0.0367 s⁻¹
- kcat/Km [7, 11]: 250 M⁻¹ s⁻¹
- Km [7, 9]: 151 ± 20 µM
- kcat [7, 9]: 0.00783 s⁻¹
- kcat/Km [7, 9]: 51.7 M⁻¹ s⁻¹
- Km [7, 12]: 1.1 ± 0.3 µM
- kcat [7, 12]: 0.00367 s⁻¹
- kcat/Km [7, 12]: 3170 M⁻¹ s⁻¹
- Km [7, 10]: 1.1 ± 0.3 µM
- kcat [7, 10]: 0.00583 s⁻¹
- kcat/Km [7, 10]: 5170 M⁻¹ s⁻¹
- Km [8]: 0.11 ± 0.02 µM
- kcat [8]: 0.00667 s⁻¹
- kcat/Km [8]: 58300 M⁻¹ s⁻¹
